As a reminder, the inhibition is the drop in the measured response relative to a control, in per cent.

Read-outs that look alike come from different tables or passages of the source.

This assay has as its target T1, IL33 and ST2 binding (Homo sapiens, UniProt O95760).
T1 sequence (O95760 112-270 limits assumed): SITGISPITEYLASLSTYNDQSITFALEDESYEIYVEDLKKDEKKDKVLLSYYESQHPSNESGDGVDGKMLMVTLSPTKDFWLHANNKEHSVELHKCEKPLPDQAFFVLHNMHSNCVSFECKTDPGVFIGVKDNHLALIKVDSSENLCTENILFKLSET
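Also: plate ELISA with coated Flag-tagged human IL-33 and His-tagged human ST2, bound ST2 detected by anti-His HRP and TMB absorbance at 450 nm, 2 h compound incubation.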

For the molecule `CN1CCN(CCNC(=O)c2nc(-c3ccc(Cl)cc3)oc2-c2ccccc2[N+](=O)[O-])CC1` [Compound 247, 2-(4-Chlorophenyl)-N-(2-(4-methylpiperazin-1-yl)ethyl)-5-(2-nitrophenyl)oxazole-4-carboxamide], the inhibition is 8% (30 µM) and 32% (100 µM).

Take `CN(C)CCN1CCN(C(=O)c2nc(-c3ccc(F)cc3)oc2-c2ccccc2[N+](=O)[O-])CC1` [Compound 228, (4-(2-(Dimethylamino)ethyl)piperazin-1-yl)(2-(4-fluorophenyl)-5-(2-nitrophenyl)oxazol-4-yl)methanone]: the inhibition by setting is: (30 µM) 24%; (100 µM) 43%.

In the case of `CN1CCN(CCNC(=O)c2nc(-c3ccc(N(C)C)cc3)oc2-c2ccccc2[N+](=O)[O-])CC1` [Compound 264, 2-(4-(Dimethylamino)phenyl)-N-(2-(4-methylpiperazin-1-yl)ethyl)-5-(2-nitrophenyl)oxazole-4-carboxamide], the inhibition (30 µM) was 29% and the inhibition (100 µM) worked out at 35%.

Turning to `O=C(c1nc(-c2ccc(C(F)(F)F)cc2)oc1-c1ccccc1[N+](=O)[O-])N1CCN(C2CC2)CC1` [Compound 146, (4-Cyclopropylpiperazin-1-yl)(5-(2-nitrophenyl)-2-(4-(trifluoromethyl)phenyl)oxazol-4-yl)methanone], the inhibition reads like this: (30 µM) -35%; (100 µM) -57%.

On to `CN(C)CCNC(=O)c1nc(-c2ccc(C3CC3)cc2)oc1-c1ccccc1` [Compound 279, 2-(4-Cyclopropylphenyl)-N-(2-(dimethylamino)ethyl)-5-phenyloxazole-4-carboxamide], for which the inhibition by setting is: (30 µM) 16%; (100 µM) 4%.

Turning to `O=C(Nc1ccc(OCc2ccccc2)cc1)c1nc(-c2ccc(C(F)(F)F)cc2)oc1-c1ccccc1[N+](=O)[O-]` [Compound 165, N-(4-(Benzyloxy)phenyl)-5-(2-nitrophenyl)-2-(4-(trifluoromethyl)phenyl)oxazole-4-carboxamide], the inhibition was 10% (30 µM) and 13% (100 µM).

As to `CCOC(=O)c1nc(-c2ccc3ccccc3c2)oc1-c1ccccc1` [Compound 83, Ethyl 2-(naphthalen-2-yl)-5-phenyloxazole-4-carboxylate], the inhibition turned out to be 22% (30 µM) and 42% (100 µM).

Take `CN1CCN(CCNC(=O)c2nc(-c3cccc(F)c3)oc2-c2ccccc2)CC1` [Compound 221, 2-(3-Fluorophenyl)N-(2-(4-methylpiperazin-1-yl)ethyl)-5-phenyloxazole-4-carboxamide]: the inhibition was -34% (30 µM) and -21% (100 µM).

Consider `CCOC(=O)c1nc(-c2ccc(C(F)(F)F)cc2)oc1-c1cccc(N)c1` [Compound 100, Ethyl 5-(3-aminophenyl)-2-(4-(trifluoromethyl)phenyl)oxazole-4-carboxylate], for which the inhibition reads like this: (30 µM) 8%; (100 µM) 5%.

On to `CN1CCN(CCNC(=O)c2nc(-c3cccc(Cl)c3)oc2-c2ccccc2[N+](=O)[O-])CC1` [Compound 243, 2-(3-chlorophenyl)-N-(2-(4-methylpiperazin-1-yl)ethyl)-5-(2-nitrophenyl)oxazole-4-carboxamide], for which the inhibition by setting is: (30 µM) 14%; (100 µM) -6%.

Take `CN1CCN(CCNC(=O)c2nc(-c3ccc(C(C)(C)C)cc3)oc2-c2ccccc2[N+](=O)[O-])CC1` [Compound 269, 2-(4-(tert-Butyl)phenyl)-N-(2-(4-methylpiperazin-1-yl)ethyl)-5-(2-nitrophenyl)oxazole-4-carboxamide]: the inhibition is, setting by setting: (30 µM) 33%; (100 µM) 44%.

Regarding `CN(C)CCNC(=O)c1nc(-c2ccc(-c3ccccc3)cc2)oc1-c1ccccc1[N+](=O)[O-]` [Compound 255, 2-([1,1′-Biphenyl]-4-yl)-N-(2-(dimethylamino)ethyl)-5-(2-nitrophenyl)oxazole-4-carboxamide], the inhibition is -10% (30 µM) and 1% (100 µM).

`O=C(NCCCN1CCOCC1)c1nc(-c2ccc(C(F)(F)F)cc2)oc1-c1ccccc1[N+](=O)[O-]` [Compound 157, N-(3-Morpholinopropyl)-5-(2-nitrophenyl)-2-(4-(trifluoromethyl)phenyl)oxazole-4-carboxamide]: the inhibition (30 µM) was determined as 22% and the inhibition (100 µM) stood at 15%.

Turning to `O=C(c1nc(-c2ccc(C(F)(F)F)cc2)oc1-c1ccccc1[N+](=O)[O-])N1CCN(CCO)CC1` [Compound 169, (4-(2-Hydroxyethyl)piperazin-1-yl)(5-(2-nitrophenyl)-2-(4-(trifluoromethyl)phenyl)oxazol-4-yl)methanone], the inhibition (30 µM) was -4% and the inhibition (100 µM) was 7%.

Turning to `CN1CCN(CCNC(=O)c2nc(-c3cccc(OC(F)(F)F)c3)oc2-c2ccccc2[N+](=O)[O-])CC1` [Compound 202, N-(2-(4-Methylpiperazin-1-yl)ethyl)-5-(2-nitrophenyl)-2-(3-(trifluoromethoxy)phenyl)oxazole-4-carboxamide], the inhibition was 7% (30 µM) and 32% (100 µM).

For `COc1ccc(CNC(=O)c2nc(-c3ccc(C(F)(F)F)cc3)oc2-c2ccccc2[N+](=O)[O-])cc1` [Compound 166, N-(4-Methoxybenzyl)-5-(2-nitrophenyl)-2-(4-(trifluoromethyl)phenyl)oxazole-4-carboxamide], the inhibition by setting is: (30 µM) 14%; (100 µM) 5%.

With `CCOC(=O)c1nc(-c2cccc(F)c2)oc1-c1ccccc1` [Compound 65, Ethyl 2-(3-fluorophenyl)-5-phenyloxazole-4-carboxylate], the inhibition was 35% (30 µM) and 32% (100 µM).

With `CN1CCN(CCNC(=O)c2nc(-c3ccc(F)c(F)c3)oc2-c2ccccc2)CC1` [Compound 232, 2-(3,4-Difluorophenyl)-N-(2-(4-methylpiperazin-1-yl)ethyl)-5-phenyloxazole-4-carboxamide], the inhibition runs as follows: (30 µM) -9%; (100 µM) 3%.

Regarding `CC(=O)c1ccc(NC(=O)c2nc(-c3ccc(C(F)(F)F)cc3)oc2-c2ccccc2[N+](=O)[O-])cc1` [Compound 147, N-(4-Acetylphenyl)-5-(2-nitrophenyl)-2-(4-(trifluoromethyl)phenyl)oxazole-4-carboxamide], the inhibition reads like this: (30 µM) 1%; (100 µM) 4%.

On to `CN(C)CCNC(=O)c1nc(-c2ccc([N+](=O)[O-])cc2)oc1-c1ccccc1` [Compound 275, N-(2-(Dimethylamino)ethyl)-2-(4-nitrophenyl)-5-phenyloxazole-4-carboxamide], for which the inhibition (30 µM) is -16% and the inhibition (100 µM) was -28%.

Regarding `CC(=O)N1CCN(CCNC(=O)c2nc(-c3cc(F)cc(F)c3)oc2-c2ccccc2[N+](=O)[O-])CC1` [Compound 286, N-(2-(4-Acetylpiperazin-1-yl)ethyl)-2-(3,5-difluorophenyl)-5-(2-nitrophenyl)oxazole-4-carboxamide], the inhibition reads like this: (30 µM) 18%; (100 µM) 33%.

For the molecule `CN(C)CCNC(=O)c1nc(-c2cccc(Cl)c2)oc1-c1ccccc1[N+](=O)[O-]` [Compound 242, 2-(3-Chlorophenyl)-N-(2-(dimethylamino)ethyl)-5-(2-nitrophenyl)oxazole-4-carboxamide], the inhibition runs as follows: (30 µM) -14%; (100 µM) -12%.

Regarding `CN(C)CCNC(=O)c1nc(-c2cccc(F)c2)oc1-c1ccccc1` [Compound 220, N-(2-(Dimethylamino)ethyl)-2-(3-fluorophenyl)-5-phenyloxazole-4-carboxamide], the inhibition by setting is: (30 µM) -2%; (100 µM) -14%.

In the case of `O=C(NCC1CCCO1)c1nc(-c2ccc(C(F)(F)F)cc2)oc1-c1ccccc1[N+](=O)[O-]` (stereo not drawn) [Compound 159, 5-(2-Nitrophenyl)-N-((tetrahydrofuran-2-yl)methyl)-2-(4-(trifluoromethyl)phenyl)oxazole-4-carboxamide], the inhibition was 2% (30 µM) and -1% (100 µM).

In the case of `CN1CCN(CCNC(=O)c2nc(-c3ccc(C#N)cc3)oc2-c2ccccc2[N+](=O)[O-])CC1` [Compound 252, 2-(4-Cyanophenyl)-N-(2-(4-methylpiperazin-1-yl)ethyl)-5-(2-nitrophenyl)oxazole-4-carboxamide], the inhibition runs as follows: (30 µM) 28%; (100 µM) 19%.

For `CN(C)CCNC(=O)c1nc(-c2ccc(F)c(F)c2)oc1-c1ccccc1[N+](=O)[O-]` [Compound 233, 2-(3,4-Difluorophenyl)-N-(2-(dimethylamino)ethyl)-5-(2-nitrophenyl)oxazole-4-carboxamide], the inhibition runs as follows: (30 µM) -27%; (100 µM) -27%.

`O=C(NCCc1ccc(O)cc1)c1nc(-c2ccc(C(F)(F)F)cc2)oc1-c1ccccc1[N+](=O)[O-]` [Compound 176, N-(4-Hydroxyphenethyl)-5-(2-nitrophenyl)-2-(4-(trifluoromethyl)phenyl)oxazole-4-carboxamide]: the inhibition (30 µM) came to 27% and the inhibition (100 µM) came out at 36%.

For `CN(C)CCNC(=O)c1nc(-c2cccc(C(F)(F)F)c2)oc1-c1ccccc1` [Compound 121, N-(2-(Dimethylamino)ethyl)-5-phenyl-2-(3-(trifluoromethyl)phenyl)oxazole-4-carboxamide], the inhibition reads like this: (30 µM) -20%; (100 µM) -18%.

Consider `CN(C)CCCN1CCN(C(=O)c2nc(-c3ccc(C(F)(F)F)cc3)oc2-c2ccccc2[N+](=O)[O-])CC1` [Compound 150, (4-(3-(Dimethylamino)propyl)piperazin-1-yl)(5-(2-nitrophenyl)-2-(4-(trifluoromethyl)phenyl)oxazol-4-yl)methanone], for which the inhibition (30 µM) was -18% and the inhibition (100 µM) turned out to be 7%.

As to `CN(C)CCNC(=O)c1nc(-c2ccc(C(F)(F)F)cc2)oc1-c1ccccc1[N+](=O)[O-]` [Compound 131, N-(2-(Dimethylamino)ethyl)-5-(2-nitrophenyl)-2-(4-(trifluoromethyl)phenyl)oxazole-4-carboxamide], the inhibition reads like this: (30 µM) 91%; (100 µM) 92%.

The values above are taken from patent US20240287052A1, “NOVEL OXAZOLE DERIVATIVE AND PHARMACEUTICAL COMPOSITION FOR PREVENTING OR TREATING ALLERGIC DISEASES COMPRISING THE SAME” (AZCURIS CO., LTD., priority 2021, published 2024).
